Results taken from patent publication US20250230171A1 (MOMA Therapeutics, Inc., priority 2023, published 2025).
pIC50: −log10 of the molar value.

Columns and labels:
DLD1 WT cells = assay: 7-day cell viability assay (CellTiter-Glo), DLD1 parental (WT); format: cell-based, human; settings: Homo sapiens, DLD-1, 168 h, 7-day viability, n=2
DLD1 BRCA2 (−/−) cells = assay: 7-day cell viability assay (CellTiter-Glo), DLD1 BRCA2 (−/−); format: cell-based, human; settings: Homo sapiens, DLD-1, 168 h, 7-day viability, n=2, read-out: Viability IC50 (uM) DLD1 BRCA2 null
Outline: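 7-day growth assay in DLD1 cells with or without BRCA2; seeding densities chosen to keep log-linear growth. Compound: 10 uM top, 3-fold, 9 points. Endpoint: CTG ATP luminescence at RT.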

[1] = target: biotinylated Avi-POLθ[2-894] (Homo sapiens (Human), UniProt O75417); assay: POLθ ATPase assay (ADP-Glo); settings: n=2; read-out: Biochemical ATPase ADPGlo IC50
Chain of biotinylated Avi-POLθ[2-894] (O75417 2-894): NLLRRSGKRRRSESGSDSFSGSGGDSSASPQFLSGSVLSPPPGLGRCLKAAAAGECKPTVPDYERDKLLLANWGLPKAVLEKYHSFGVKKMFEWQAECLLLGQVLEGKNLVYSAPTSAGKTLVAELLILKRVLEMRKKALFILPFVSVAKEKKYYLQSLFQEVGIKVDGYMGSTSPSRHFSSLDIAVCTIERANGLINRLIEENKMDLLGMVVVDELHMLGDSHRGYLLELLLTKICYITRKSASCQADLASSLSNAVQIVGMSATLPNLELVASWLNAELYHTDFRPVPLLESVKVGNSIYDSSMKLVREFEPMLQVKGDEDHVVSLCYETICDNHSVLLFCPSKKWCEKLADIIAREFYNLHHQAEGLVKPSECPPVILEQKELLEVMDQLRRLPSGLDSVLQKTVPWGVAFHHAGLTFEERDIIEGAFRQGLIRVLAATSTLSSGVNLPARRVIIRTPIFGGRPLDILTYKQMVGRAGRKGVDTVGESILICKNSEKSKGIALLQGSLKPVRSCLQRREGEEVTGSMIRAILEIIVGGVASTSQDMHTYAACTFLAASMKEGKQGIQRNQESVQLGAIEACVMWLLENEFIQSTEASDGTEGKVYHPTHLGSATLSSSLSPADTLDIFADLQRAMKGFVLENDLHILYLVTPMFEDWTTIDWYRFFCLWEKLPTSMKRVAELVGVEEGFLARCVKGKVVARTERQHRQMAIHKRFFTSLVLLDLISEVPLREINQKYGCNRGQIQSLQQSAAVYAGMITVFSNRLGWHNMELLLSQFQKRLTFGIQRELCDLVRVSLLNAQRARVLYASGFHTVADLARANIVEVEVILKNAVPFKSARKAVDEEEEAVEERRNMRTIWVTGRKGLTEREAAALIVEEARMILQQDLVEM

COc1cnc(Cl)cc1-c1cc(C)ncc1C(=O)Nc1nc2c(s1)CN(C(=O)c1nc(C)co1)C2 [Example 67, 2′-chloro-5′-methoxy-6-methyl-N-(5-(4-methyloxazole-2-carbonyl)-5,6-dihydro-4H-pyrrolo[3,4-d]thiazol-2-yl)-[4,4′-bipyridine]-3-carboxamide] gave an IC50 (DLD1 WT cells) of 0.5 to 2 µM, an IC50 (DLD1 BRCA2 (−/−) cells) of 0.001 to 0.1 µM and a pIC50 [1] of 7.82 to 9.00.
Work on COc1cnc(Cl)cc1-c1cc(C)ncc1C(=O)Nc1nc2c(s1)CN(C(=O)c1cc(Cl)n(C)n1)C2 [Example 73, 2′-chloro-N-(5-(5-chloro-1-methyl-1H-pyrazole-3-carbonyl)-5,6-dihydro-4H-pyrrolo[3,4-d]thiazol-2-yl)-5′-methoxy-6-methyl-[4,4′-bipyridine]-3-carboxamide] yielded an IC50 (DLD1 WT cells) of 0.001 to 0.5 µM, an IC50 (DLD1 BRCA2 (−/−) cells) of 0.001 to 0.1 µM and a pIC50 [1] of 7.82 to 9.00.
COc1cnc(Cl)cc1-c1cc(C)ncc1C(=O)Nc1nc2c(s1)CN(C(=O)c1nn(C)c(C)c1Cl)C2 [Example 74, 2′-chloro-N-(5-(4-chloro-1,5-dimethyl-1H-pyrazole-3-carbonyl)-5,6-dihydro-4H-pyrrolo[3,4-d]thiazol-2-yl)-5′-methoxy-6-methyl-[4,4′-bipyridine]-3-carboxamide] was tested, and the IC50 (DLD1 WT cells) was 0.001 to 0.5 µM, the IC50 (DLD1 BRCA2 (−/−) cells) was 0.001 to 0.1 µM and the pIC50 [1] was 7.82 to 9.00.
In the case of COc1cnc(Cl)cc1-c1cc(C)ncc1C(=O)Nc1nc2c(s1)CN(C(=O)c1cc(Cl)ccn1)C2 [Example 78, 2′-chloro-N-(5-(4-chloropicolinoyl)-5,6-dihydro-4H-pyrrolo[3,4-d]thiazol-2-yl)-5′-methoxy-6-methyl-[4,4′-bipyridine]-3-carboxamide], the IC50 (DLD1 WT cells) was 5 to 10 µM, the IC50 (DLD1 BRCA2 (−/−) cells) was 0.001 to 0.1 µM and the pIC50 [1] was 7.82 to 9.00.
COc1cnc(C(=O)N2Cc3nc(NC(=O)c4cnc(C)cc4-c4cc(Cl)ncc4OC)sc3C2)o1 [Example 79, 2′-chloro-5′-methoxy-N-(5-(5-methoxyoxazole-2-carbonyl)-5,6-dihydro-4H-pyrrolo[3,4-d]thiazol-2-yl)-6-methyl-[4,4′-bipyridine]-3-carboxamide] was tested, and the IC50 (DLD1 WT cells) was 0.5 to 2 µM, the IC50 (DLD1 BRCA2 (−/−) cells) was 0.001 to 0.1 µM and the pIC50 [1] was 7.82 to 9.00.
For COc1cnc(Cl)cc1-c1cc(C)ncc1C(=O)Nc1nc2c(s1)CN(C(=O)c1c(C)cnn1C)C2 [Example 81, 2′-chloro-N-(5-(1,4-dimethyl-1H-pyrazole-5-carbonyl)-5,6-dihydro-4H-pyrrolo[3,4-d]thiazol-2-yl)-5′-methoxy-6-methyl-[4,4′-bipyridine]-3-carboxamide], the IC50 (DLD1 WT cells) was ≥ 10 µM, the IC50 (DLD1 BRCA2 (−/−) cells) was 0.001 to 0.1 µM and the pIC50 [1] was 7.82 to 9.00.
In the case of COc1cnc(Cl)cc1-c1cc(C)ncc1C(=O)Nc1nc2c(s1)CN(C(=O)c1cnn(C)c1C(F)(F)F)C2 [Example 84, 2′-chloro-5′-methoxy-6-methyl-N-(5-(1-methyl-5-(trifluoromethyl)-1H-pyrazole-4-carbonyl)-5,6-dihydro-4H-pyrrolo[3,4-d]thiazol-2-yl)-[4,4′-bipyridine]-3-carboxamide], the IC50 (DLD1 WT cells) was ≥ 10 µM, the IC50 (DLD1 BRCA2 (−/−) cells) was 0.001 to 0.1 µM and the pIC50 [1] was 7.82 to 9.00.
For COc1cnc(Cl)cc1-c1cc(C)ncc1C(=O)Nc1nc2c(s1)CN(C(=O)c1c(C(F)F)nn(C)c1Cl)C2 [Example 89, 2′-chloro-N-(5-(5-chloro-3-(difluoromethyl)-1-methyl-1H-pyrazole-4-carbonyl)-5,6-dihydro-4H-pyrrolo[3,4-d]thiazol-2-yl)-5′-methoxy-6-methyl-[4,4′-bipyridine]-3-carboxamide], the IC50 (DLD1 WT cells) was ≥ 10 µM, the IC50 (DLD1 BRCA2 (−/−) cells) was 0.001 to 0.1 µM and the pIC50 [1] was 7.82 to 9.00.
For COc1cc(C(=O)N2Cc3nc(NC(=O)c4cnc(C)cc4-c4cc(Cl)ncc4OC)sc3C2)n(C)n1 [Example 90, 2′-chloro-5′-methoxy-N-(5-(3-methoxy-1-methyl-1H-pyrazole-5-carbonyl)-5,6-dihydro-4H-pyrrolo[3,4-d]thiazol-2-yl)-6-methyl-[4,4′-bipyridine]-3-carboxamide], the IC50 (DLD1 WT cells) was ≥ 10 µM, the IC50 (DLD1 BRCA2 (−/−) cells) was 0.001 to 0.1 µM and the pIC50 [1] was 7.82 to 9.00.
